Measured values published in patent US20250281397A1, “FORMULATIONS OF A PLASMA KALLIKREIN INHIBITOR” (KALVISTA PHARMACEUTICALS LIMITED, priority 2022, published 2025).
Blank lines part the entries; values can stand above or below the molecule they belong to.

Columns and labels:
[1] = literature / authorised label; cited from earlier work
[2] = reported by Chilcote and Sinha, ARVO 2012; cited from earlier work
[3] = Phase 1 trial: single-dose 3-way crossover pharmacokinetic study, ODT vs film-coated tablets; format: in vivo, human; settings: single doses of 500 mg or 600 mg in ODT or FCT, healthy adult participants
Protocol: This study was an open label, randomized, single-dose, 3-way crossover pharmacokinetic study.
Thirty-six (36) healthy, adult, male and female subjects were enrolled.
The film coated tablets were those used in the phase 2 study described herein (NCT04208412).
There was a washout period of at least 4 days between the dose in Period 1 and Period 2 and the dose in Period 2 and Period 3.
An analysis of variance (ANOVA) was performed on the natural log (ln) transformed AUC0-t, AUC0-inf, AUC% extrap and Cmax, using the appropriate statistical procedure.

[4] = Plasma concentration after oral administration; format: in vivo; settings: following administration of a dosage amount of at least about 60 mg
[5] = BCS classification (ICH M9); format: physicochemical; settings: ICH guideline M9
Text: BCS class IV drugs are considered to be poorly soluble and poorly permeable meaning that they are likely to have poor oral bioavailability and/or the oral absorption may be so low that they cannot be given by the oral route. Due to their numerous unfavourable characteristics, BCS class IV drugs are particularly challenging to formulate as oral dosage forms and in particular as ODTs. Indeed, ODTs of BCS class IV drugs are not generally known in the art.

[6] = swallowable tablet, NCT04208412; cited from earlier work

Molecule: N#Cc1cccc([C@@H](NCC2CC2)c2ccc(F)c(NC(=O)c3cc(C(F)(F)F)nn3-c3cccc(CN)c3)c2)c1 [Berotralstat, reference compound]
reported adverse reactions [1]: higher doses were associated with more gastrointestinal adverse effects

Molecule: N=C(N)c1ccc(CNC(=O)c2cnn(Cc3ccccc3)c2)cc1 [ASP-440]
oral availability [2]: poor oral availability

concentration of KVD900 in plasma [4]: at least 500 ng/ml
BCS classification [5]: BCS class IV
Molecule: COCc1nn(Cc2ccc(Cn3ccccc3=O)cc2)cc1C(=O)NCc1nccc(OC)c1F [KVD900, N-[(3-fluoro-4-methoxypyridin-2-yl)methyl]-3-(methoxymethyl)-1-({4-[(2-oxopyridin-1-yl)methyl]phenyl}methyl) pyrazole-4-carboxamide]
safety and tolerability [3]: well tolerated
phase 2 efficacy and safety endpoints [6]: met all of its phase 2 efficacy and safety endpoints

Molecule: Ecallantide
reported adverse reactions [1]: risks of anaphylactic reactions

B1: lanadelumab: recombinant fully human IgG1 kappa light chain monoclonal antibody, plasma kallikrein inhibitor (antibody, chains of the INN, looked up, V domains shown)
VH: EVQLLESGGGLVQPGGSLRLSCAASGFTFSHYIMMWVRQAPGKGLEWVSGIYSSGGITVYADSVKGRFTISRDNSKNTLYLQMNSLRAEDTAVYYCAYRRIGVPRRDEFDIWGQGTMVTVSS
VL: DIQMTQSPSTLSASVGDRVTITCRASQSISSWLAWYQQKPGKAPKLLIYKASTLESGVPSRFSGSGSGTEFTLTISSLQPDDFATYYCQQYNTYWTFGQGTKVEIK
reported adverse reactions [1]: hypersensitivity, injection site pain, injection site erythema, and injection site bruising
